One assay has as its target PARP1 (Homo sapiens, UniProt P09874). The assay can be described thus: Inhibition of PARP1 enzyme activity (ELISA, chemiluminescence). In kind it is biochemical. To be noted: for IC50: ELISA, histone-coated plate, NAD+, 60 min at 25 °C; for Selectivity PARP2/PARP1: ratio of PARP2 IC50 to PARP1 IC50. (An ELISA detects its analyte on a solid surface through an enzyme-linked reagent.)

In a further assay the test system is DLD-1 BRCA2(-/-) cells. Kind of assay: Inhibition of proliferation of DLD-1 BRCA2(-/-) cells (CTG method). It is filed as cell-based. Conditions: Homo sapiens, DLD-1, 168 h; 7 days incubation, CellTiter-Glo. As for the experimental part: • 1. Cell Pretreatment: DLD-1 BRCA2(-/-) cells were cultured in growth medium 1640 + 10% FBS (fetal bovine serum) + 1% Penicillin-Streptomycin. Cells in the logarithmic growth phase were digested with trypsin-EDTA, centrifuged, and resuspended. DLD-1 BRCA2(-/-) cells were seeded at 1,000 cells/well in sterile 96-well opaque plates, 75 µl per well. After seeding, the cell culture plates were incubated overnight at 37 °C with 5% CO2 before adhesion, followed by treatment with the test compounds. • 2. DLD-1 BRCA2(-/-) Cell Drug Treatment: The test compound was prepared as a 10 mM stock solution using DMSO. The test compound was then diluted to a 4× working solution using growth medium (starting at 40 µM, with 9 4-fold dilutions). 25 µl of 4× working solution was added to each well to achieve final concentrations of 10000, 2500, 625, 156, 39, 9.7, 2.4, 0.61, and 0.152 nM, respectively. Blank control wells containing the same DMSO concentration were also included, with three replicates for each concentration. After adding the test compound, the cells were incubated at 37 °C with 5% CO2 for 7 days. • 3. After incubation, 100 µl of CellTiter-Glo® Reagent was added to each well, and […] intensity was measured. A curve was fitted using GraphPad software, and the IC50 value for cell proliferation inhibition was calculated.
On the technique in general: ATP-based viability assays read luminescence as a measure of living cells.

For the next assay, the system named is MDA-MB-436 cells. Kind of assay: Inhibition of proliferation of MDA-MB-436 cells (CellTiter-Glo). It is filed as cell-based. To be noted: Homo sapiens, MDA-MB-436, 168 h, 7 days incubation. The method, then:
• 1. Cell Pretreatment: MDA-MB-436 cells were cultured in DMEM + 10% FBS + 1% penicillin-dip antibiotics + 1% ITS + 16 µg/ml glutathione. Cells in the logarithmic growth phase were digested with trypsin-EDTA, centrifuged and resuspended, and then seeded at a rate of 500-1000 cells/well in sterile 96-well opaque plates, 90 µl per well. After seeding, the cell culture plates were incubated overnight at 37°C with 5% CO2 before drug treatment. • 2. Drug treatment of MDA-MB-436 cells: The test compound was prepared as a 10 mM stock solution using DMSO. The drug was then diluted to a 10× working solution using growth medium (the compound was started at 100 µM and diluted 4-fold to achieve 9 concentrations). 10 µl of the 10× working solution was added to each well to achieve final drug concentrations of 10000, 2500, 625, 156, 39, 9.7, 2.4, 0.61, and 0.152 nM, respectively. Blank control wells containing the same DMSO concentration were also included, with three replicates for each concentration. After drug addition, the cells were incubated at 37°C with 5% CO2 for 7 days. • 3. After incubation, 100 µl of CellTiter-Glo® Reagent was added to each well, and luminescence was measured. The IC50 value of cell proliferation inhibition was calculated using GraphPad software to fit the curve. Table E: Results of the inhibitory effect of the compound of this invention on the proliferation of MDA-MB-436 cells.

A further assay addresses PARP2 (Homo sapiens, UniProt Q9UGN5). The assay can be described thus: biochemical.

As a reminder, the IC50 is the concentration that gives 50% inhibition. The low end stands for greater potency in that assay, the high end for weaker potency in that assay.

Chain of PARP2 (Q9UGN5 whole entry): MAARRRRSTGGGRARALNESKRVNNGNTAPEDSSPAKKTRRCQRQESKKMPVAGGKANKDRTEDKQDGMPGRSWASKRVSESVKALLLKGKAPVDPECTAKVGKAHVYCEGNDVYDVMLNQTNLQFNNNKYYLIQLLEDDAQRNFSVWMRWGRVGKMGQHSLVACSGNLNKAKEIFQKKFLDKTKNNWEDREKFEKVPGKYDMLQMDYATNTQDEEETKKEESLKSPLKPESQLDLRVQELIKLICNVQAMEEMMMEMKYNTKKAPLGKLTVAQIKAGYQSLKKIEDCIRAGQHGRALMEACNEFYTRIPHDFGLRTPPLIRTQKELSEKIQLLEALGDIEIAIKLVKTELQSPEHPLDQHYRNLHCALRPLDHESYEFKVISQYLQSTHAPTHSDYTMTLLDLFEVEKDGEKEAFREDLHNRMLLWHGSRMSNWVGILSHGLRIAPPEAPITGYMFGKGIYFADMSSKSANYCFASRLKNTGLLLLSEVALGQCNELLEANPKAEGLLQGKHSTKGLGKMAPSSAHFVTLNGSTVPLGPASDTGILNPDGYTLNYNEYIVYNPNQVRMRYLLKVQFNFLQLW
Chain of PARP1 (P09874 whole entry): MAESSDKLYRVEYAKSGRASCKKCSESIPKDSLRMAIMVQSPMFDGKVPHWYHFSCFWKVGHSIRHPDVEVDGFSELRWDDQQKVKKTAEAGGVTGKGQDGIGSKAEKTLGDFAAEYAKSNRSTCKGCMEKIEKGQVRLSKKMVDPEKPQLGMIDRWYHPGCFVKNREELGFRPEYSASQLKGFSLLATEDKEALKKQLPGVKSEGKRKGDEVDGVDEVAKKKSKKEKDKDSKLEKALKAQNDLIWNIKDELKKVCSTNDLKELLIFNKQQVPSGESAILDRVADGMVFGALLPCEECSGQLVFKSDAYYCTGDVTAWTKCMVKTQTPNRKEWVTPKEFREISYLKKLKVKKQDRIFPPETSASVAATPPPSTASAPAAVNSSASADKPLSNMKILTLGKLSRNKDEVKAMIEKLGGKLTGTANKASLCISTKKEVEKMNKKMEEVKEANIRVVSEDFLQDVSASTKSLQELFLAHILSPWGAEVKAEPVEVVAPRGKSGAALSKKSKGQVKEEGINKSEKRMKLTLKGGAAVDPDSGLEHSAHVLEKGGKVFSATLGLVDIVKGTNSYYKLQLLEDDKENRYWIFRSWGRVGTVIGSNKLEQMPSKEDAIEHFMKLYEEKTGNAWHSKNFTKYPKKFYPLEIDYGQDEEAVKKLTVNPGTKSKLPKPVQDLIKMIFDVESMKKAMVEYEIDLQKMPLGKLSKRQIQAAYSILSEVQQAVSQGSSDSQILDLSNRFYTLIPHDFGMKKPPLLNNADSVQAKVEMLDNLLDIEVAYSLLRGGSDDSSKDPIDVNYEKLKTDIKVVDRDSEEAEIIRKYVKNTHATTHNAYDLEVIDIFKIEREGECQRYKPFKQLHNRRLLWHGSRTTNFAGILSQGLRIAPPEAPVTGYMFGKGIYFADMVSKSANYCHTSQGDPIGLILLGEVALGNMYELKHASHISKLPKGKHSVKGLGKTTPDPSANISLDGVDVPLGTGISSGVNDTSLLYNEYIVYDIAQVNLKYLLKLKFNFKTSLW
Description for PARP2: Experimental Objective: To evaluate the inhibitory effect of the compounds of the present invention on the enzyme activities of PARP1 and PARP2 using ELISA.
• 1. histone-coated 384-well plates was prepared: 25 µL of histone solution was added to each well and incubated overnight at 4 °C. • 2. PBST buffer, blocking buffer (PBS buffer with 5% BSA and 0.05% Tween-20 added) and detection buffer (20 mM HEPES pH 7.5 + 100 mM NaCl + 2 mM DTT + 0.002% Tween-20 + 0.1% BSA) were prepared. • 3. The histone-coated 3 84-well plate was washed three times with PBST buffer, blocked at room temperature with 50 µL blocking buffer for 1 hour, and then washed three times with PBST buffer. • 4. Test compounds were prepared as 2000-fold stock solutions in DMSO. 50 nL of the stock solution was mixed with 19.95 µL detection buffer, and 5 µL of the gradient-diluted test compound was transferred to each well. • 5. Enzymatic reaction (PARP1): PARP1 & DNA mix was pre-incubated at 25 °C for 10 minutes. 10 µL of the PARP1 & DNA mix was added to each well and incubated with the test compound at room temperature for 10 minutes. […] Finally, the 384-well plate was washed three times with PBST buffer. Enzymatic reaction (PARP2): PARP2 was pre-incubated at 25 °C for 10 minutes. 10 µL of PARP2 was added to each well and incubated with the test compound at room temperature for 10 minutes. […] Finally, the 384-well plate was washed three times with PBST buffer. • 6. Detection (PARP1): 20 µL of anti-Poly/Mono-ADP Ribose Rabbit mAb was added and incubated at room temperature for 1.5 hours, followed by three washes of the 384-well plate with PBST buffer. Then, 20 µL of diluted anti-rabbit IgG, HRP-linked Antibody (diluted 1:2000 in blocking buffer) was added and incubated at room temperature for 1 hour. After washing the plate three times with PBST buffer, 25 µL of a 1:1 mixture of Femto-ECL Substrate A and Femto-ECL Substrate B was added. Detection (PARP2): 25 µL of Strep-HRP was added and incubated at room temperature for 1 hour, followed by three washes of the 384-well plate with PBS buffer. Then, 25 µL of a 1:1 mixture of Femto-ECL Substrate A and Femto-ECL Substrate B was added. • 7. Chemiluminescence intensity was measured using an Envision multimode microplate reader. • 8. Data Processing
The inhibition rate was calculated in Excel using formula (1). inh% = (Max−Signal)/(Max−Min)*100 [formula]
The IC50 value was obtained by fitting the data in XL-Fit using formula (2). Y = bottom + (top−bottom)/(1+(IC50/X)*HillSlope); [formula] wherein Y is the inhibition percentage and X is the compound concentration.

On to `CNC(=O)c1ccc(N2CCN(Cc3cc(Oc4ccc(F)cc4)c4nc(C)c(=O)[nH]c4c3)CC2)c(F)n1` [Example 6, 6-fluoro-5-(4-((8-(4-fluorophenoxy)-2-methyl-3-oxo-3,4-dihydroquinoxalin-6-yl)methyl)piperazin-1-yl)-N-methylpicolinamide], for which the IC50 at PARP1 is 1.2 nM; with DLD-1 BRCA2(-/-) cells, 14.5 nM; in the assay with MDA-MB-436 cells it was 6.8 nM; at PARP2, 839 nM. Also, the “Selectivity PARP2/PARP1” value at PARP1 came to 700.1.
For `CC#Cc1cc(CN2CCN(c3ccc(C(=O)NC4CC4)nc3F)CC2)c(F)c2[nH]c(=O)c(C)nc12` [Example 47, N-cyclopropyl-6-fluoro-5-(4-((5-fluoro-2-methyl-3-oxo-8-(prop-1-yn-1-yl)-3,4-dihydroquinoxalin-6-yl)methyl)piperazin-1-yl)picolinamide] the same measures were 6.9 nM, 18.6 nM, 0.6 nM, more than 10000 nM and more than 1456.3.
The matching figures for `CC#Cc1cc(CN2CCN3c4ccc(C(=O)NC)nc4COC[C@H]3C2)cc2[nH]c(=O)c(C)nc12` [Example 63, (R)-N-methyl-3-((2-methyl-3-oxo-8-(prop-1-yn-1-yl)-3,4-dihydroquinoxalin-6-yl)methyl)-2,3,4,4a,5,7-hexahydro-1H-pyrazino[2,1-c]pyrido[3,2-e][1,4]oxazepine-9-carboxamide]: 3.2 nM, 16.1 nM, 6.2 nM, 1280 nM and 398.8.
For `CNC(=O)c1ccc(N2CCN(Cc3cc(OC4CCCC4)c4nc(C)c(=O)[nH]c4c3)CC2)c(F)n1` [Example 71, 5-(4-((8-(cyclopentoxy)-2-methyl-3-oxo-3,4-dihydroquinoxalin-6-yl)methyl)piperazin-1-yl)-6-fluoro-N-methylpyridine amide] the same measures were 1.5 nM, 12.3 nM, 9.3 nM, 1290 nM and 873.7.
Regarding `CNC(=O)c1ccc(N2CCN(Cc3cc(Oc4ccccc4)c4nc(C)c(=O)[nH]c4c3)CC2)c(F)n1` [Example 4, 6-fluoro-N-methyl-5-(4-((2-methyl-3-oxo-8-phenoxy-3,4-dihydroquinoxalin-6-yl)methyl)piperazin-1-yl)picolinamide], the half-inhibitory concentration (IC50) at PARP1 is 1.84 nM; in the assay on DLD-1 BRCA2(-/-) cells, 4.7 nM; in the assay on MDA-MB-436 cells, 5.3 nM; at PARP2, 1780 nM. The “Selectivity PARP2/PARP1” value on PARP1 was determined as 968.5.
Take `CNC(=O)c1ccc(N2CCN(Cc3cc(-c4ccccc4F)c4nc(C)c(=O)[nH]c4c3)CC2)c(F)n1` [Example 8, 6-fluoro-5-(4-((8-(2-fluorophenyl)-2-methyl-3-oxo-3,4-dihydroquinoxalin-6-yl)methyl)piperazin-1-yl)-N-methylpicolinamide]: the IC50 on PARP1 was 4.1 nM; with DLD-1 BRCA2(-/-) cells, 32.2 nM; in the assay on MDA-MB-436 cells it was 23.6 nM; against PARP2, 2690 nM. Also, the “Selectivity PARP2/PARP1” value at PARP1 is reported as 657.2.
For `CNC(=O)c1ccc(N2CCN(Cc3cc(OC(F)F)c4nc(C)c(=O)[nH]c4c3F)CC2)c(C)n1` [Example 60, 5-(4-((8-(difluoromethoxy)-5-fluoro-2-methyl-3-oxo-3,4-dihydroquinoxalin-6-yl)methyl)piperazin-1-yl)-N,6-dimethylpicolinamide] the same measures were 2.9 nM, 8.58 nM, 31.2 nM, 5820 nM and 2030.7.
The matching figures for `CNC(=O)c1ccc(N2CCN(Cc3cc(OC4CC(F)(F)C4)c4nc(C)c(=O)[nH]c4c3)CC2)c(F)n1` [Example 18, 5-(4-((8-(3,3-difluorocyclobutoxy)-2-methyl-3-oxo-3,4-dihydroquinoxalin-6-yl)methyl)piperazin-1-yl)-6-fluoro-N-methylpicolinamide]: 1.7 nM, 7.9 nM, 0.9 nM, 93.3 nM and 54.7.
On to `CNC(=O)c1ccc(N2CCN(Cc3cc(C4CC4)c4nc(C)c(=O)[nH]c4c3F)CC2)c(F)n1` [Example 19, 5-(4-((8-cyclopropyl-5-fluoro-2-methyl-3-oxo-3,4-dihydroquinoxalin-6-yl)methyl)piperazin-1-yl)-6-fluoro-N-methylpicolinamide], for which the IC50 turned out to be 0.7 nM against PARP1, 1.5 nM in the assay on DLD-1 BRCA2(-/-) cells, 4.2 nM in the assay with MDA-MB-436 cells and 70 nM against PARP2. Also, the “Selectivity PARP2/PARP1” value at PARP1 was 107.3.
For the compound `CNC(=O)c1ccc(N2CCN(Cc3cc(-c4cccc(F)c4)c4nc(C)c(=O)[nH]c4c3)CC2)c(F)n1` [Example 9, 6-fluoro-5-(4-((8-(3-fluorophenyl)-2-methyl-3-oxo-3,4-dihydroquinoxalin-6-yl)methyl)piperazin-1-yl)-N-methylpicolinamide], the IC50 was 1.61 nM at PARP1, 11.1 nM with DLD-1 BRCA2(-/-) cells, 8.1 nM in the assay on MDA-MB-436 cells and 1140 nM against PARP2. Moreover, at PARP1, the “Selectivity PARP2/PARP1” value amounted to 705.3.
For the compound `CC#Cc1cc(CN2CCN(c3ccc(C(=O)NC)nc3F)CC2)c(F)c2[nH]c(=O)c(C)nc12` [Example 21, 6-fluoro-5-(4-((5-fluoro-2-methyl-3-oxo-8-(prop-1-yn-1-yl)-3,4-dihydroquinoxalin-6-yl)methyl)piperazin-1-yl)-N-methylpicolinamide], the IC50 against PARP1 was 6.7 nM; in the assay on DLD-1 BRCA2(-/-) cells it was 22.2 nM; in the assay on MDA-MB-436 cells it was 22.9 nM; on PARP2, more than 10000 nM. Also, the “Selectivity PARP2/PARP1” value at PARP1 was more than 1480.
`CNC(=O)c1ccc(N2CCN(Cc3cc(OC(F)F)c4nc(C5CC5)c(=O)[nH]c4c3)CC2)c(F)n1` [Example 54, 5-(4-((2-cyclopropyl-8-(difluoromethoxy)-3-oxo-3,4-dihydroquinoxalin-6-yl)methyl)piperazin-1-yl)-6-fluoro-N-methylpicolinamide]: the IC50 was 7.6 nM on PARP1, 18.4 nM in the assay with DLD-1 BRCA2(-/-) cells, 28.7 nM with MDA-MB-436 cells and 203 nM against PARP2. Moreover, the “Selectivity PARP2/PARP1” value at PARP1 is recorded as 26.7.
As to `CNC(=O)c1ccc(N2CCN(Cc3cc(Nc4ccc(F)cc4)c4nc(C)c(=O)[nH]c4c3)CC2)c(F)n1` [Example 33, 6-fluoro-5-(4-((8-((4-fluorophenyl)amino)-2-methyl-3-oxo-3,4-dihydroquinoxalin-6-yl)methyl)piperazin-1-yl)-N-methylpicolinamide], the IC50 at PARP1 stood at 1.2 nM; with DLD-1 BRCA2(-/-) cells it was 9.3 nM; with MDA-MB-436 cells, 4.1 nM; at PARP2, 234 nM. In addition, the “Selectivity PARP2/PARP1” value on PARP1 was 188.8.
On to `CNC(=O)c1ccc(C2=CCN(Cc3cc(OC(F)F)c4nc(C)c(=O)[nH]c4c3)CC2)cn1` [Example 44, 1'-((8-(difluoromethoxy)-2-methyl-3-oxo-3,4-dihydroquinoxalin-6-yl)methyl)-N-methyl-1',2',3',6'-tetrahydro-[3,4'-bipyridine]-6-carboxamide], for which the IC50 at PARP1 turned out to be 0.8 nM; in the assay with DLD-1 BRCA2(-/-) cells it was 9.3 nM; in the assay on MDA-MB-436 cells, 1.3 nM; against PARP2 it was 148 nM. Moreover, at PARP1, the “Selectivity PARP2/PARP1” value is on record as 184.1.
Regarding `CNC(=O)c1ccc(N2CCN(Cc3cc(-c4cnn(C)c4)c4nc(C)c(=O)[nH]c4c3)CC2)c(F)n1` [Example 70, 6-fluoro-N-methyl-5-(4-((2-methyl-8-(1-methyl-1H-pyrazol-4-yl)-3-oxo-3,4-dihydroquinoxalin-6-yl)methyl)piperazin-1-yl)picolinamide], the IC50 was determined as 14.2 nM in the assay on DLD-1 BRCA2(-/-) cells and 13.9 nM in the assay on MDA-MB-436 cells.

The values above are taken from patent EP4755880A1, “SUBSTITUTED NITROGEN-CONTAINING BICYCLIC COMPOUND AND USE THEREOF” (Sunshine Lake Pharma Co., Ltd., priority 2023, dated 2025).
